Structures can show the parent of a compound that is named as a salt. Where two headings read alike, the source gives them in different places. Each block holds one compound with its values, some of them ahead of it.
Legend:
[1] = tested on: Murine L1210 leukemia cells; assay: L1210 cell growth inhibition (IC50); type: cell-based
Method: Murine L1210 leukemia cells were maintained in logarithmic growth as a suspension culture in RPMI-1640 medium (Gibco, Grand Island, N.Y.) containing 10% fetal bovine serum (Gibco), 2% HEPES-MOPS buffer, 1 mM L-glutamine (Gibco), and 1 mM aminoguanidine at 37° C. in a water-jacketed 5% CO2 incubator.
Cells were grown in 25 cm^2 tissue culture flasks in a total volume of 10 mL. Cultures were treated during logarithmic growth (0.5−1.0×10^5 cells/mL) with the compounds of interest, reseeded, and incubated as described in Bergeron, R. J., Müller, R., Bussenius, J., McManis, J. S., Merriman, R. L., Smith, R. E., Yao, H., Weimar, W. R., “Synthesis and Evaluation of Hydroxylated Polyamine Analogues as Antiproliferatives,” J. Med. Chem 43: 224-235 (2000). Cell counting and calculation of percent of control growth were also carried out as described in Bergeron, et al. The IC50 is defined as the concentration of compound necessary to reduce cell growth to 50% of control growth after defined intervals of exposure.

[2] = tested on: polyamine pools in L1210 cells; assay: Effect on native polyamine pools in L1210 cells (HPLC); type: cell-based, murine; details: for activity at 0.2 µM: L1210
Method: At the end of the treatment period, cell suspensions were sampled, washed three times in ice-cold, incomplete medium, and pelleted for extraction using 0.6 N perchloric acid, then freeze-fractured in liquid nitrogen/hot water three times. Each supernatant was frozen at −20° C. until analysis of polyamine content by HPLC. […] The buffer consisted of potassium phosphate (10 mM) and EDTA (2 mM), pH 2.9.

[3] = tested on: Ornithine decarboxylase (ODC); assay: ODC activity in treated L1210 cells; type: cell-based, murine
Method: (§1) Ornithine decarboxylase (ODC) and Adenosylmethionine decarboxylase (AdoMet DC) activities were determined according to the procedures of Seely, J. E., Pegg, A. E., “Ornithine Decarboxylase (Mouse Kidney),” Methods Enzymol. 94: 158-161 (1983) and Pegg, A. E., Pösö, H., “S-Adenosylmethionine Decarboxylase (Rat Liver),” Methods Enzymol. 94: 234-239 (1983), respectively, on the basis of quantitation of ^14CO2 released from [^14C]carboxyl-labeled L-ornithine or S-adenosyl-L-methionine. Included in each assay were untreated L210 cells as negative controls as well as cells treated with DEHSPM, a drug having a known reproducible effect on each enzyme, as positive controls.

[4] = tested on: Adenosylmethionine decarboxylase (AdoMet DC); assay: AdoMetDC activity in treated L1210 cells; type: cell-based, murine
Method: as §1

[5] = tested on: Spermidine/spermine N^1-acetyl transferase (SSAT); assay: SSAT activity in treated L1210 cells; type: cell-based, murine
Text: Spermidine/spermine N^1-acetyl transferase (SSAT) activity was based on quantitation of [^14C]-N^1-acetylspermidine formed by acetylation of SPD with [^14C]-acetyl coenzyme A according to the method of Libby, P. R., Bergeron, R. J., Porter, C. W., “Structure-Function Correlations of Polyamine Analog-Induced Increases in Spermidine/Spermine Acetyltransferase Activity,” Biochem. Pharmacol. 38: 1435-1442 (1989). Cells treated with DENSPM were positive controls.

[6] = tested on: chelator-promoted iron excretion; assay: Iron clearance in the bile duct-cannulated rat; type: in vivo; details: for iron-clearing efficiency: bile duct-cannulated rat
Method: In this model, chelator-promoted iron excretion is measured in both the bile and the urine. Furthermore, because the method allows for collection of multiple bile samples, the kinetics of iron excretion can be determined. In each instance, the drugs were given subcutaneously. L1 and its SPM conjugate (4 and 5) were administered at a dose of 450 μmol/kg and (S)-4′-(HO)-DADFT (8) and its NSPD conjugates (9 and 10) were administered at a dose of 300 μmol/kg, i.e., all at equivalent iron-binding capacity.

L1210 leukemia cells [7] = assay: Intracellular concentration / accumulation of analogue in L1210 cells (HPLC); details: for intracellular concentration over extracellular treatment concentration: 0.2 μM extracellular
Method: At the end of the treatment period, cell suspensions were sampled, washed three times in ice-cold, incomplete medium, and pelleted for extraction using 0.6 N perchloric acid, then freeze-fractured in liquid nitrogen/hot water three times.
During logarithmic growth, cells were treated with the compounds. At the end of the treatment period, cell suspensions were sampled, washed three times in ice-cold, incomplete medium, and pelleted for extraction using 0.6 N perchloric acid, then freeze-fractured in liquid nitrogen/hot water three times. Each supernatant was frozen at −20° C. until analysis of analogue content by HPLC,
Analytical separation was performed on a Waters Symmetry C18 column (250 mm×4.6 mm, 5 μm) with a guard column using a Rainin Instrument Company HPLC system. The buffer employed was sodium octanesulfonate (2.5 mM) in potassium phosphate (25 mM), pH 3.0. Mobile phase A consisted of 5% CH3CN, 95% buffer; mobile phase B consisted of 60% CH3CN, 40% buffer. The solvent gradient program employed a linear gradient that increased from 20% mobile phase B to 40% mobile phase B over 40 min and a 5-min ramp to 100% B over 5 min. Post-column derivatization used a boric acid buffer system (H3BO3, 3.1% w/v; KOH, 2.6% w/v; 2-mercaptoethanol, 0.6% v/v) that contained o-phthaldialdehyde (10 mL of a 4% w/v solution in CH3OH per L of buffer). The flow rate was 0.4 mL/min, isocratic; UV detection (λex, 340 nm; λem, 445 nm) was utilized.
Analytical separation was performed on a reversed-phase Supelco Discovery RP Amide C16 column (150×4.6 mm, 5 μm) on the system described above, and UV detection was at 300 nm. The mobile phases were pumped at a flow rate of 1.5 mL/min. The buffer and mobile phases A and B were the same as described above. The solvent gradient program employed an initial 10-min isocratic portion with 5% mobile phase B (95% A), followed by a linear gradient increase to 80% mobile phase B at 35 min, a 5-min ramp to 100% B held for 10 min, and ramping back to 5% mobile phase B for 8 min (58-65 min total).
In both cases, the concentrations were calculated from the peak area fitted to calibration curves by nonweighted least squares linear regression with Rainin Dynamax HPLC Method Manager software (Rainin Instrument Co.).

polyamine transporter [8] = assay: Competition with [3H]SPD for uptake into L1210 cells (polyamine transporter, Ki); type: cell-based, murine; details: for Ki: L1210 cell suspensions, read-out: Ki, competition with [3H]SPD for the polyamine transport apparatus
Text: The compounds of interest were studied for their ability to compete with [^3H]SPD for uptake into L1210 leukemia cell suspensions in vitro as described in Bergeron, R. J., Hawthorne, T. R., Vinson, J. R. T., Beck, D. L., Jr., Ingeno, M. J., “Role of the Methylene Backbone in the Antiproliferative Activity of Polyamine Analogues on L1210 Cells,” Cancer Res. 49: 2959-2964 (1989); Bergeron, R. J., McManis, J. S., Liu, C. Z., Feng, Y., Weimar, W. R., Luchetta, G. R., Wu, Q., Ortiz-Ocasio, J., Vinson, J. R. T., Kramer, D., Porter, C., “Antiproliferative Properties of Polyamine Analogues: A Structure-Activity Study,” J. Med. Chem. 37: 3464-3476 (1994); and Bergeron, R. J., Weimar, W. R., Wu, Q., Feng, Y., McManis, J. S., “Polyamine Analogue Regulation of NMDA MK-801 Binding: A Structure-Activity Study,” J. Med. Chem. 39: 5257-5266 (1996). Briefly, cell suspensions were incubated in 1 mL of culture medium containing radiolabeled SPD alone or radiolabeled SPD in the presence of graduated concentrations of a chelator or derivative. At the end of the incubation period, the tubes were centrifuged; the pellet was washed, digested, and neutralized prior to scintillation counting. Lineweaver-Burk plots indicated a simple competitive inhibition with respect to SPD.
The molecules of interest were studied for their ability to compete with [^3H]SPD for uptake into L1210 leukemia cell suspensions in vitro. Briefly, cell suspensions were incubated in 1 mL of culture medium containing radiolabeled SPD alone or radiolabeled SPD in the presence of graduated concentrations of chelator or conjugate. At the end of the incubation period, the tubes were centrifuged; the pellet was washed, digested, and neutralized prior to scintillation counting. Lineweaver-Burk plots indicated simple competitive inhibition with respect to SPD.

[9] = tested on: Murine L1210 leukemia cells; details: cited from earlier work
polyamine transporter [10] = details: L1210 cell suspensions; read-out: Ki, competition for the polyamine transport apparatus (historical numbers); cited from earlier work
L1210 leukemia cells [11] = details: extracellular 30 μM; cited from earlier work
[12] = Mus musculus, 48 h exposure, read-out: IC50, 48 h
[13] = Mus musculus, 96 h exposure, read-out: IC50, 96 h
[14] = rat, 450 μmol/kg subcutaneously
[15] = rat, 300 μmol/kg subcutaneously
[16] = L1210 cells, treatment concentration 100 μM

Structure (SMILES): CCOC(=O)[C@@]1(C)CSC(c2ccc(OCCCCNCCCNCCCN)cc2O)=N1 [Compound 9]
- IC50 [1, 12]: 1.5 µM
- IC50 [1, 13]: 1.5 µM
- Ki (polyamine transporter [8]): 5.7 µM
- iron-clearing efficiency ([6]; 300 μmol/kg subcutaneously): 13.6±3.3%
- biliary ferrokinetics (in words) [6, 15]: protracted biliary iron clearance
- intracellular level (L1210 leukemia cells [7]; extracellular 100 μM): 947 ± 110 µM

Structure (SMILES): C[C@]1(C(=O)O)CSC(c2ccc(OCCCCNCCCNCCCN)cc2O)=N1.Cl.Cl.Cl [Compound 10, (S)-4,5-dihydro-2-[2-hydroxy-4-(12-amino-5,9-diazadodecyloxy)phenyl]-4-methyl-4-thiazolecarboxylic acid trihydrochloride]
- IC50 [1, 12]: 40 µM
- IC50 [1, 13]: 40 µM
- Ki (polyamine transporter [8]): 73 µM
- biliary ferrokinetics (in words) [6, 15]: protracted biliary iron clearance
- drug species found in tissues of dosed animals ([6]; rat, subcutaneous): contained largely free acid
- intracellular level (L1210 leukemia cells [7]; extracellular 100 μM): about 70 μM

Structure (SMILES): Cc1c(O)c(=O)ccn1CCCNCCCCNCCCN (as salt: hydrochloride) [Compound 3, 1-(12-Amino-4,9-diazadodecyl)-2-methyl-3-hydroxy-4(1H)-pyridinone Tetrahydrochloride]
- melting point: 216 to 218 °C

Structure (SMILES): CC(=O)NCCCNCCCCNCCCN [AcSPM, N^1-Acetylspermine]
- IC50 [1, 12]: > 100 µM
- IC50 [1, 13]: > 100 µM
- Ki (polyamine transporter [8]): 10 µM
- putrescine, percent of control [2, 16]: substantial effect
- spermidine, percent of control [2, 16]: slight decrease
- spermine, percent of control [2, 16]: increased
- ODC activity, % of control [3]: 25±11 % of control
- AdoMetDC activity, % of control [4]: 86±11 % of control
- SSAT activity, % of control [5]: 180±11 % of control
- intracellular concentration (analogue accumulation) (L1210 leukemia cells [7]; treatment concentration 100 μM): 1.62 mM

Structure (SMILES): C[C@]1(C(=O)O)CSC(c2ccc(O)cc2O)=N1 [Compound 8, 2-(2,4-dihydroxyphenyl)-4-(S)-methylthiazoline-4-carboxylic acid]
- IC50 [1, 12]: 19 µM
- IC50 [1, 13]: 20 µM
- iron-clearing efficiency ([6]; 300 μmol/kg subcutaneously): 1.1±0.6%
- intracellular level (L1210 leukemia cells [7]; extracellular 100 μM): ≤ 50 µM

Structure (SMILES): COC(=O)c1ccc(C(=O)NCCCNCCCCN)cc1 [Compound 6, N^1-terephthaloylspermidine methyl ester]
- Ki (polyamine transporter [8]): 3.1 µM

Structure (SMILES): NCCCCNCCCNC(=O)c1ccc(C(=O)O)cc1 [Compound 7, N^1-terephthaloylspermidine]
- Ki (polyamine transporter [8]): 27 µM
- fold increase of Ki of the free acid over the corresponding ester (polyamine transporter [8]; L1210 cells): 9 fold
- intracellular level (L1210 leukemia cells [7]; extracellular 100 μM): < 70 µM

Structure (SMILES): Cc1c(O)c(=O)ccn1CCCNCCCCNCCCN [Compound 3, 1-(12-Amino-4,9-diazadodecyl)-2-methyl-3-hydroxy-4(1H)-pyridinone Tetrahydrochloride]
- IC50 [1, 12]: 0.2 µM
- IC50 [1, 13]: 0.2 µM
- activity at 0.2 µM ([2]; Mus musculus, read-out: putrescine, percent of control): 33%
- activity at 0.2 µM ([2]; Mus musculus, read-out: spermidine, percent of control): 64%
- activity at 0.2 µM ([2]; Mus musculus, read-out: spermine, percent of control): 139%
- ODC activity, % of control [3]: 20±4 % of control
- AdoMetDC activity, % of control [4]: 77±11 % of control
- SSAT activity, % of control [5]: 275±6 % of control
- iron-clearing efficiency ([6]; 450 μmol/kg subcutaneously): 1.8±0.9%
- share of excreted iron in the bile [6, 14]: 53%
- share of excreted iron in the urine [6, 14]: 47%
- intracellular concentration relative to that attained by parent ligand L1 (L1210 leukemia cells [7]): several hundred times higher
- intracellular concentration over extracellular treatment concentration (L1210 leukemia cells [7]): more than 1900 fold
- intracellular concentration over extracellular treatment concentration (L1210 leukemia cells [7]; listed as 1-(12-amino-4,9-diazadodecyl)-2-methyl-3-hydroxy-4-(1H)-pyridinone): 1900 fold
- intracellular level (L1210 leukemia cells [7]; extracellular 0.2 μM): 390 µM
- intracellular concentration (analogue accumulation) (L1210 leukemia cells [7]; treatment concentration 0.2 μM): 0.39 mM

Second part, led by results:

- IC50 [1, 12]: 46 µM
- IC50 [1, 13]: 55 µM
- intracellular level (L1210 leukemia cells [7]; extracellular 50 μM): 1 µM
Structure (SMILES): Cc1c(O)c(=O)ccn1C [Compound L1, 1,2-Dimethyl-3-hydroxypyridin-4-one]
- putrescine, percent of control ([2]; L1210 cells, treatment 50 μM): remained close to control levels
- spermidine, percent of control ([2]; L1210 cells, treatment 50 μM): remained close to control levels
- activity at 50 µM ([2]; Mus musculus, L1210 cells, treatment 50 μM, read-out: spermine, percent of control): 127%
- ODC activity, % of control [3]: 114±5 % of control
- AdoMetDC activity, % of control [4]: 120±4 % of control
- SSAT activity, % of control [5]: 108±58 % of control
- iron-clearing efficiency ([6]; 450 μmol/kg subcutaneously): 2.2±0.9%
- share of excreted iron in the bile [6, 14]: 74%
- share of excreted iron in the urine [6, 14]: 26%

- intracellular concentration (analogue accumulation) (L1210 leukemia cells [7]; treatment concentration 100 μM): 3.52 mM
Structure (SMILES): CCCNCCCCNCCCN [MPSPD(N^8), N^8-propylspermidine]
- putrescine, percent of control [2, 16]: lowered
- spermidine, percent of control [2, 16]: lowered
- activity at 100 µM ([2]; Mus musculus, L1210 cells, treatment concentration 100 μM, read-out: spermine, percent of control): 103%
- AdoMetDC activity, % of control [4]: 64 % of control
- SSAT activity, % of control [5]: 500 % of control
- IC50 ([9]; 48 h exposure, read-out: IC50, 48 h (historical numbers)): > 100 µM
- IC50 ([9]; 96 h exposure, read-out: IC50, 96 h (historical numbers)): 55 µM
- Ki (polyamine transporter [10]): 8.5 µM

- IC50 ([1]; 48 h exposure, read-out: IC50, 48 h): 30 µM
- IC50 ([1]; 96 h exposure, read-out: IC50, 96 h): 0.2 µM
Structure (SMILES): CCNCCCNCCCCNCCCNCC [DESPM]
- intracellular level (previous studies) (L1210 leukemia cells [11]): 400 µM

- IC50 [1, 12]: 7 µM
- IC50 [1, 13]: 6 µM
Structure (SMILES): CC(=O)N(O)CCCCCNC(=O)CCC(=O)N(O)CCCCCNC(=O)CCC(=O)N(O)CCCCCN [DFO]

- intracellular concentration (analogue accumulation) (L1210 leukemia cells [7]; treatment concentration 100 μM): 1.24 mM
Structure (SMILES): CCNCCCNCCCCNCCCN [MESPM, N^1-ethylspermine]

- IC50 ([1]; exposure time not given, read-out: IC50): > 100 µM
- intracellular level (L1210 leukemia cells [7]; extracellular 100 μM): < 20 µM
Structure (SMILES): FC(F)(F)CNCCCNCCCCNCCCNCC(F)(F)F [FDESPM]
- competition for / uptake by the polyamine transporter (in words) (polyamine transporter [8]; L1210 cells): poor Ki

Reference: patent US20080096974A2, “Polyamine-Metal Chelator Conjugates” (University of Florida Research Foundation, Inc., priority 2003, published 2008)
